How the values were obtained:
Alopecurus myosuroides = assay: Weeding effect in post-emergence stage; type: in vivo; settings: active ingredient 250 g/ha
From the text: (§1) The activity level criteria for plant damage (i.e., growth control rate) are as follows:
(§2) The above growth control rates are fresh weight control rates.
(§3) Experiment on weeding effect in post-emergence stage: monocotyledonous and dicotyledonous weed seeds and major crop seeds (wheat, corn, rice, soybean, cotton, oilseed rape, millet, sorghum) were placed in plastic pots filled with soil, then covered with 0.5-2 cm of soil, allowed to grow in a good greenhouse environment. After 2 weeks of sowing, the test plants were treated in the 2-3 leaf stage. The tested compounds of the present invention were respectively dissolved in acetone at the dosage of 2000, 1000, 500, 250, 125 g/ha, then added with Tween 80 and 1.5 liter/ha of emulsifiable concentrate of methyl oleate as synergist, diluted with a certain amount of water to obtain a solution with a certain concentration, and sprayed with a spray tower onto the plants. After the application, the plants were cultured for 3 weeks in the greenhouse, and then the experimental results were listed in Table 1.
(§4) In addition, under the active ingredient of 250 g/ha, many compounds also show good crop selectivity and excellent control effect on key weeds.

Alopecurus aequalis = assay: Weeding effect in post-emergence stage; type: in vivo; settings: active ingredient 250 g/ha
From the text: as §1, §2, §3, §4

Sclerochloa dura = assay: Weeding effect in post-emergence stage; type: in vivo; settings: active ingredient 250 g/ha
From the text: as §1, §2, §3, §4

Beckmannia syzigachne = assay: Weeding effect in post-emergence stage; type: in vivo; settings: active ingredient 250 g/ha
From the text: as §1, §2, §3, §4

Abutilon theophrasti = assay: Weeding effect in post-emergence stage; type: in vivo; settings: active ingredient 2000 g/ha, 3 weeks after application, fresh weight control rate
Outline: (§5)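 Pot-grown weeds at the 2-3 leaf stage receive a tower spray of test compound at 2000, 1000, 500, 250 or 125 g/ha, formulated in acetone with Tween 80 and methyl oleate synergist. Fresh weight reduction is rated on an activity scale 3 weeks later.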

[1] = test system: Amaranthus retroflexus L.; assay: Weeding effect in post-emergence stage; type: in vivo; settings: active ingredient 2000 g/ha, 3 weeks after application, fresh weight control rate
Outline: as §5

Descurainia sophia = assay: Weeding effect in post-emergence stage; type: in vivo; settings: for Activity level (growth control rate), Descurainia sophia: active ingredient 250 g/ha; for Weeding effect, activity level (growth control rate), Descurainia sophia: active ingredient 2000 g/ha, 3 weeks after application, fresh weight control rate
Outline: as §5

Chenopodium album = assay: Weeding effect in post-emergence stage; type: in vivo; settings: active ingredient 2000 g/ha, 3 weeks after application, fresh weight control rate
Outline: as §5

Wheat = assay: Crop selectivity in post-emergence stage; type: in vivo; settings: active ingredient 250 g/ha
From the text: as §1, §2, §3, §4

[2] = test system: Echinochloa crusgalli, Scirpus juncoides, Bidens tripartita L., Sagittaria trifolia, Monochoria vaginalis; assay: Weed control effect evaluation in rice field; type: in vivo, rice field weeds; settings: weed seeds collected from Heilongjiang Province of China
From the text: Transplanted rice safety evaluation and weed control effect evaluation in rice field:
Rice field soil was loaded into a 1/1,000,000 ha pot. The seeds of Echinochloa crusgalli, Scirpus juncoides, Bidens tripartita L., Sagittaria trifolia, and Monochoria vaginalis were sowed and gently covered with soil, then left to stand still in greenhouse in the state of 0.5-1 cm of water storage. The tuber of Sagittaria trifolia was planted in the next day or 2 days later. It was kept at 3-4 cm of water storage thereafter. The weeds were treated by dripping the WP or SC water diluents prepared according to the common preparation method of the compounds of the present invention with pipette homogeneously to achieve specified effective amount when Echinochloa crusgalli, Scirpus juncoides, Bidens tripartita L., and Monochoria vaginalis reached 0.5 leaf stage and Sagittaria trifolia reached the time point of primary leaf stage.
The fertility condition of Echinochloa crusgalli, Scirpus juncoides, Bidens tripartita L., Sagittaria trifolia and Monochoria vaginalis 14 days after the treatment of the compound of the invention and the fertility condition of rice 21 days after the treatment of the compound of the invention respectively with the naked eye. Evaluate the weed control effect with the above 0-5 activity standard level, many compounds show excellent activity and selectivity. […]

Row | SMILES | Activity level (growth control rate), Alopecurus myosuroides (Alopecurus myosuroides) | Activity level (growth control rate), Alopecurus aequalis (Alopecurus aequalis) | Activity level (growth control rate), Sclerochloa dura (Sclerochloa dura) | Activity level (growth control rate), Beckmannia syzigachne (Beckmannia syzigachne) | Weeding effect, activity level (growth control rate), Abutilon theophrasti (Abutilon theophrasti) | Weeding effect, activity level (growth control rate), Amaranthus retroflexus L. [1] | Activity level (growth control rate), Descurainia sophia (Descurainia sophia) | Weeding effect, activity level (growth control rate), Descurainia sophia (Descurainia sophia) | Weeding effect, activity level (growth control rate), Chenopodium album (Chenopodium album) | Plant damage level (growth control rate), Wheat (Wheat) | Response of the rice field weeds to common doses of the herbicide [2]
1 | Cn1nnnc1NC(=O)c1ccnc(-c2ccccc2F)c1Cl [Compound 1-15] | 5 (Level 5: growth control rate is above 85%) | 5 (Level 5: growth control rate is above 85%) | 5 (Level 5: growth control rate is above 85%) | 5 (Level 5: growth control rate is above 85%) | 5 (Level 5: growth control rate is above 85%) | 5 (Level 5: growth control rate is above 85%) | 5 (Level 5: growth control rate is above 85%) | 5 (Level 5: growth control rate is above 85%) | 5 (Level 5: growth control rate is above 85%) | 0 (Level 0: growth control rate is less than 5%) | –
2 | Cc1nonc1NC(=O)c1ccnc(C)c1Cl [Control compound A, reference compound] | 0 (Level 0: growth control rate is less than 5%) | 0 (Level 0: growth control rate is less than 5%) | 0 (Level 0: growth control rate is less than 5%) | 0 (Level 0: growth control rate is less than 5%) | – | – | 0 (Level 0: growth control rate is less than 5%) | – | – | 0 (Level 0: growth control rate is less than 5%) | –
3 | COc1cnc(OC)n2nc(NS(=O)(=O)c3c(OCC(F)F)cccc3C(F)(F)F)nc12 [Penoxsulam, penoxsulam] | – | – | – | – | – | – | – | – | – | – | resistant
4 | CCOC(=O)c1cnn(C)c1S(=O)(=O)NC(=O)Nc1nc(OC)cc(OC)n1 [Pyrazosulfuron-ethyl, pyrazosulfuron-ethyl] | – | – | – | – | – | – | – | – | – | – | resistant
5 | Cn1nnnc1NC(=O)c1ccnc(-c2ccc(F)cc2)c1Cl [Compound 1-17] | 5 (Level 5: growth control rate is above 85%) | 5 (Level 5: growth control rate is above 85%) | 5 (Level 5: growth control rate is above 85%) | 5 (Level 5: growth control rate is above 85%) | 5 (Level 5: growth control rate is above 85%) | 5 (Level 5: growth control rate is above 85%) | 5 (Level 5: growth control rate is above 85%) | 5 (Level 5: growth control rate is above 85%) | 5 (Level 5: growth control rate is above 85%) | 0 (Level 0: growth control rate is less than 5%) | –

Source: patent publication US12497365B2, “4-pyridinyl formamide compound or derivative thereof, preparation method therefor, herbicidal composition and use thereof” (Qingdao Kingagroot Chemical Compound Co., Ltd., priority 2019, dated 2025)
